Measurements taken from patent publication US9180215B2, “Positron emission tomography imaging method” (PURDUE RESEARCH FOUNDATION, priority 2007, dated 2015).

Target: T1, folate receptors on KB cells (Homo sapiens, UniProt P15328)
T1 construct: endogenous in cells; host or cells: KB cells
Assay: Competitive binding assay using KB cells (displacement of 3H-folic acid)
Conditions: competitive binding at folate receptors on KB cells, 10 nM 3H-folic acid, 37° C., 1 h
Protocol: Competitive binding assay using KB cells. Relative binding affinity of the folate-fluoro-phenyl conjugate was evaluated according to the standard literature protocol by Westerhof et. al. (Mol Pharmacol, 1995, 48, 459-471) and C. P. Leamon et. al. (Bioconjugate Chem., 2006, 17 (5), 1226-1232) with minor modification.
Then cells were rinsed three times with 250 μL of PBS (phosphate saline buffer) and one time with trichloro-acetic acid. 1% sodium dodecylsulfate (250 μL) in PBS were added to each well and after 10 min cell lysates were transferred to individual vials containing 3 mL of scintillation cocktail and radioactivity was counted.

T1 sequence (P15328 25-234): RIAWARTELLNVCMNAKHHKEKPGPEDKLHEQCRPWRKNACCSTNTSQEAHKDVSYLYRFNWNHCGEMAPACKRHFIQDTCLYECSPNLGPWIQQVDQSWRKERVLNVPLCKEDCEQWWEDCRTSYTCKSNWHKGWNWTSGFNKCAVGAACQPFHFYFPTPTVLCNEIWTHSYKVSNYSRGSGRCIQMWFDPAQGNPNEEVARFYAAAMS

Nc1nc2ncc(CNc3ccc(C(=O)N[C@@H](CCC(=O)NCCNC(=O)CCOCCOCCOCCOCCOCCOCCNC(=O)c4ccc(F)cc4)C(=O)O)cc3)nc2c(=O)[nH]1 [compound of FIG. 1]
Kd: 23.8 nM
